According to patent EP2948433B1, “ATGLISTATIN AS LIPASE INHIBITOR” (Technische Universität Graz, priority 2013, dated 2014):
Where a name gives a salt, the structure may show the parent alone.

Assays:
[1] = target: T1, recombinant ATGL (Mus musculus, UniProt Q8BJ56); assay: TG hydrolase activity of E. coli lysates overexpressing recombinant strep-tagged ATGL and CGI-58, radiolabeled triolein substrate; assay type: biochemical; details: inhibition of the activity of recombinant ATGL
T1 construct: Strep-tag; made in house; host or cells: E. coli (XL-1), vector pASK-IBA5+; crude lysate supernatant, not purified
T1 sequence (Q8BJ56 1-486): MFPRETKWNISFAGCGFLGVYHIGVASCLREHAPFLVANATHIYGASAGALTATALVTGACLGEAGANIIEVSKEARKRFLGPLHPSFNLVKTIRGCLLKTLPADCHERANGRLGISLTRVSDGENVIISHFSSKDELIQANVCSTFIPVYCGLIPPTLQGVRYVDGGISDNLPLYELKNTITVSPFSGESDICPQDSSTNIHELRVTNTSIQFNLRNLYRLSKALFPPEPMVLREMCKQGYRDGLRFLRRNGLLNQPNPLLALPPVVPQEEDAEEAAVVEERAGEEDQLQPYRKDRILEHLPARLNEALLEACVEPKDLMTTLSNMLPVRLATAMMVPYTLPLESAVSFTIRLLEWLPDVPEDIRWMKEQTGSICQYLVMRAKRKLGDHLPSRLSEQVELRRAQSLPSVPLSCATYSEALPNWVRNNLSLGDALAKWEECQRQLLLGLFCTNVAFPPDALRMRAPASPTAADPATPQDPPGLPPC
Protocol: • Figure 1. Structure of compounds 1 to 3 (reference) and compound 4 (atglistatin) and effect on ATGL activity. For determination of lipase activity, lysates of E. coli overexpressing recombinant strep-tagged ATGL and CGI-58 were incubated with a substrate containing radiolabeled [9,10-3H(N)]-triolein. Subsequently, FA were extracted and quantified by liquid scintillation counting. Lysates of cells expressing empty vector were set as blank. Inhibitors were solubilized in DMSO and added at the indicated concentrations. DMSO alone was used as negative control. (A) Structure and IC50 values of compounds 1-4. (B) Dose-dependent inhibition of ATGL in the presence of compound 3 and 4. […] (C) Lineweaver-Burk plots for kinetic analysis of ATGL inhibition. Experiments were performed at varying concentrations of substrate (0.05 - 3 mM) in presence and absence of compound 4 (Atglistatin). […] Data are presented as mean +/-S.D. of triplicate determinations. Data for compound 4 are representative for at least three independent experiments. • Figure 2. Selectivity of Atglistatin. Lipase activity of ATGL, HSL, lipoprotein lipase, and pancreatic lipase was determined using triolein as substrate. MGL activity was detected in the presence of rac-(1,3)-monooleoylglycerol as substrate. Inhibitors were solubilized in DMSO and added at the indicated concentrations. DMSO alone was used as negative control. (A) Dose-dependent inhibition of TG hydrolase activity in WAT lysates obtained from wild-type and ATGL-ko mice. (B) Inhibition of TG hydrolase activity in wild-type WAT lysates by Atglistatin (40 µM) and by the HSL inhibitor Hi 76-0079 (20 µM). (C) Effect of Atglistatin on murine MGL (purified from E. coli), and murine HSL (overexpressed in COS-7 lysates) activity. (D) Effect of Atglistatin on purified bovine LPL (Sigma) and pancreatic lipase (from porcine pancreas, Sigma). Data are presented as mean +/- S.D. of triplicate determinations and are representative for at least three independent experiments (p < 0.05 **, p < 0.01; ***, p < 0.001). • Figure 3 Inhibition of lipolysis in 3T3-L1 adipocytes and WAT organ cultures. (A,B) Differentiated 3T3 cells were preincubated with the indicated concentrations of Atglistatin. Thereafter, the medium was replaced by DMEM containing 2% BSA (fatty acid free), 10 µM forskolin, in the presence or absence of inhibitors. The release of FA (A) and glycerol (B) in the media was determined using commercial kits. Basal FA and glycerol release (not shown) was barely detectable under the applied conditions. Data are presented as mean +/- SD and are representative for 2 independent experiments. (C-F) Effect of Atglistatin on WAT basal (C, D) and forskolin-stimulated (E, F) lipolysis. Adipose tissue pieces (∼15 mg, n=5 for each concentration) of wild-type mice were cultured for 8 h in DMEM containing 2 % FA-free BSA and the indicated concentrations of Atglistatin. Subsequently, the medium was replaced by identical fresh medium and samples were collected after incubation for another hour in the presence or in the absence of 10 µM forskolin. Atglistatin was solubilized in DMSO and DMSO alone was used as negative control. Data are presented as mean +/- S.D. (*, p < 0.05 **, p < 0.01; ***, p < 0.001). • Figure 4 Inhibition of lipolysis in vivo. […] At the indicated timepoints blood was taken retroorbitally and plasma parameters were measured using commercial kits. […] 8 h after gavage blood was taken retroorbitally and plasma parameters were measured using commercial kits. […]

[2] = In vitro toxicity tests (not specified further); assay type: cell-based
[3] = system: ATGL; details: expressed ATGL (Jenkins 2004) or native ATGL in hepatocytes (Chung 2008); cited from earlier work
[4] = Water solubility of the hydrochloride; assay type: physicochemical; details: hydrochloride obtained as colourless oil
Protocol: (§1) As some compounds are not readily soluble in water, it may be preferable to prepare a more readily soluble form of a compound. A possible way to increase the water solubility of a compound is to generate its hydrochloride. The compound is suspended in dest. H2O and a 25 % HCl-solution is added until the solid is completely dissolved. Next, 1 M Tris-HCl-buffer is added to bring the solution to pH 7.4. This procedure yields usually good results. However, in some cases the compound may not be soluble or may precipitate when the pH of the solution elevated to bring it close to neutral pH. In this case, an alternative procedure is provided. The compound is suspended in diethyl ether and dichloromethane is added until the solid is completely dissolved. Then hydrochloric acid is added and all of the solvents are removed under reduced pressure and dried on high vacuum. The resulting colourless oil is water soluble. This procedure was followed with Atglistatin (compound 4) where NMR confirmed the structure of Atglistatin hydrochloride. The water soluble inhibitor may be injected in mice and its impact on the release of free fatty acids (FFA) and glycerol, measured.

[5] = Injection of the water soluble inhibitor in mice, release of FFA and glycerol; assay type: in vivo
Protocol: as §1
Atglistatin (compound 4) was administrated orally by gavage in olive oil (200 µl) or by IP injection. For IP administration, the hydrochloride was generated by the addition of 25% HCl resulting in a water soluble compound. […]

For CCOC(=O)c1ccn(-c2ccc(OCC)cc2)n1 [Compound 2, Ethyl 1-(4-ethoxyphenyl)-1H-pyrazole-3-carboxylate, reference compound], the IC50 [1] was 40 µM and the “toxicity in in vitro tests” value [2] was “some limited toxicity”.
CCOC(=O)c1cccc(-c2ccc(OCC)cc2)c1 [Compound 3, Ethyl 4'-ethoxybiphenyl-3-carboxylate, reference compound] showed an IC50 [1] of 12 µM.
In the case of O=C1O/C(=C/Br)CC[C@@H]1c1cccc2ccccc12 [(R)-Bromoenol lactone], the ATGL inhibitory activity [3] is listed as “has been demonstrated”.
With CN(C)C(=O)Nc1cccc(-c2ccc(N(C)C)cc2)c1 [Atglistatin hydrochloride] the water solubility [4] was “water soluble” and the “release of free fatty acids (FFA) and glycerol after injection” value [5] was “reduction in the release of free fatty acids (FFA) and glycerol”.
For CCOC(=O)c1nn(-c2ccc(OCC)cc2)cc1O [Compound 1, Ethyl 1-(4-ethoxyphenyl)-4-hydroxy-1H-pyrazole-3-carboxylate], the “toxicity in in vitro tests” value [2] was “some limited toxicity”.
